Laboratory results: patent US20240398805A1, “QUINAZOLINE DERIVED COMPOUNDS AS EGFR INHIBITORS AND THEIR USES THEREOF” (ACCUTAR BIOTECHNOLOGY INC., priority 2021, published 2024)

How the values were obtained:
Type in all cases: cell-based
[1] = system: HCC827-ASV cells (human EGFR exon 20 insertion mutant A769_D770insASV); experiment: Cell growth inhibition (CellTiter-Glo, 3 days) in HCC827-ASV; conditions: 72 h, 3 days after administration
Summary of the method: (§1)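 HCC827 cells lentivirally transduced with codon-optimized ASV or YVMA insertion mutants were seeded at 5000 cells/well in RPMI with 10% FBS and incubated overnight. Compound was added at various concentrations from a 10× stock in medium, with 3 days' incubation. Viability read by CellTiter-Glo luminescence.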

HCC827 cells = experiment: Cell growth inhibition (CellTiter-Glo, 3 days) in HCC827; conditions: Homo sapiens, 72 h, 3 days after administration
Summary of the method: (§2)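 Growth inhibition was scored by CellTiter-Glo luminescence after 3-day compound exposure at various concentrations. Cells were plated at 5000/well the day before treatment: A431 in DMEM and HCC827 in RPMI, each with 10% FBS.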

[2] = system: HCC827-SVD cells (human EGFR exon 20 insertion mutant D770_N771 insSVD); experiment: Cell growth inhibition (CellTiter-Glo, 3 days) in HCC827-SVD; conditions: 72 h, 3 days after administration
Summary of the method: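 HCC827 cells carrying lentiviral codon-optimized EGFR D770_N771 insSVD, with endogenous EGFR knocked out by CRISPR (single clone), seeded at 5000 cells/well in RPMI with 10% FBS. Viability read by CellTiter-Glo luminescence.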

[3] = system: HCC827-YVMA cells (human ERBB2 exon20 insertion mutant A775_G776ins YVMA); experiment: Cell growth inhibition (CellTiter-Glo, 3 days) in HCC827-YVMA; conditions: 72 h, 3 days after administration
Summary of the method: as §1

A431 cells = experiment: Cell growth inhibition (CellTiter-Glo, 3 days) in A431; conditions: Homo sapiens, A-431, 72 h, 3 days after administration
Summary of the method: as §2

GI50 [1]	GI50 (HCC827 cells)	GI50 [2]	GI50 [3]	GI50 (A431 cells)	Structure (SMILES)
< 30 nM	30 to 60 nM	< 30 nM	< 30 nM	300 to 600 nM	C=CC(=O)N1CCC(Nc2cc3c(Nc4ccc(Oc5ccn(-c6cnc(C)cc6C)n5)cc4F)ncnc3cc2OC)CC1 [Example 37, 1-(4-((4-((4-((1-(4,6-dimethylpyridin-3-yl)-1H-pyrazol-3-yl)oxy)-2-fluorophenyl)amino)-7-methoxyquinazolin-6-yl)amino)piperidin-1-yl)prop-2-en-1-one]
30 to 60 nM	100 to 300 nM	30 to 60 nM	30 to 60 nM	30 to 60 nM	C=CC(=O)N1CCC(Nc2cc3c(Nc4ccc(Oc5ccn(-c6cnc(C)c(OC)c6)n5)cc4F)ncnc3cc2OC)CC1 [Example 38, 1-(4-((4-((2-fluoro-4-((1-(5-methoxy-6-methylpyridin-3-yl)-1H-pyrazol-3-yl)oxy)phenyl)amino)-7-methoxyquinazolin-6-yl)amino)piperidin-1-yl)prop-2-en-1-one]
< 30 nM	60 to 100 nM	< 30 nM	< 30 nM	300 to 600 nM	C=CC(=O)N1CCC(Nc2cc3c(Nc4ccc(Oc5ccnc(-n6cc(C)cn6)n5)cc4F)ncnc3cc2OC)CC1 [Example 39, 1-(4-((4-((2-fluoro-4-((2-(4-methyl-1H-pyrazol-1-yl)pyrimidin-4-yl)oxy)phenyl)amino)-7-methoxyquinazolin-6-yl)amino)piperidin-1-yl)prop-2-en-1-one]
300 to 600 nM	≥ 1000 nM	600 to 1000 nM	600 to 1000 nM	≥ 1000 nM	C=CC(=O)N1CCC(Nc2cc3c(Nc4ccc(Oc5ccnc(-c6cncs6)c5)cc4F)ncnc3cc2OC)CC1 [Example 42, 1-(4-((4-((2-fluoro-4-((2-(thiazol-5-yl)pyridin-4-yl)oxy)phenyl)amino)-7-methoxyquinazolin-6-yl)amino)piperidin-1-yl)prop-2-en-1-one]
< 30 nM	60 to 100 nM	< 30 nM	< 30 nM	300 to 600 nM	C=CC(=O)N1CCC(Nc2cc3c(Nc4ccc(Oc5ccnc(-c6nccs6)c5)cc4F)ncnc3cc2OC)CC1 [Example 43, 1-(4-((4-((2-fluoro-4-((2-(thiazol-2-yl)pyridin-4-yl)oxy)phenyl)amino)-7-methoxyquinazolin-6-yl)amino)piperidin-1-yl)prop-2-en-1-one]
< 30 nM	100 to 300 nM	60 to 100 nM	60 to 100 nM	300 to 600 nM	C=CC(=O)N1CCC(Nc2cc3c(Nc4ccc(Oc5ccnc(-c6ccn[nH]6)c5)cc4F)ncnc3cc2OC)CC1 [Example 45, 1-(4-((4-((4-((2-(1H-pyrazol-5-yl)pyridin-4-yl)oxy)-2-fluorophenyl)amino)-7-methoxyquinazolin-6-yl)amino)piperidin-1-yl)prop-2-en-1-one]
< 30 nM	30 to 60 nM	30 to 60 nM	< 30 nM	300 to 600 nM	C=CC(=O)N1CCC(Nc2cc3c(Nc4ccc(Oc5ccn(-c6ccnc(OC)n6)n5)cc4F)ncnc3cc2OC)CC1 [Example 47, 1-(4-((4-((2-fluoro-4-((1-(2-methoxypyrimidin-4-yl)-1H-pyrazol-3-yl)oxy)phenyl)amino)-7-methoxyquinazolin-6-yl)amino)piperidin-1-yl)prop-2-en-1-one]
30 to 60 nM	60 to 100 nM	30 to 60 nM	30 to 60 nM	60 to 100 nM	C=CC(=O)N1CCC(Nc2cc3c(Nc4ccc(Oc5ccn(-c6ccc(N(C)C)nn6)n5)cc4F)ncnc3cc2OC)CC1 [Example 48, 1-(4-((4-((4-((1-(6-(dimethylamino)pyridazin-3-yl)-1H-pyrazol-3-yl)oxy)-2-fluorophenyl)amino)-7-methoxyquinazolin-6-yl)amino)piperidin-1-yl)prop-2-en-1-one]
30 to 60 nM	60 to 100 nM	30 to 60 nM	30 to 60 nM	100 to 300 nM	C=CC(=O)N1CCC(Nc2cc3c(Nc4ccc(Oc5ccn(-c6ccc(OC)nn6)n5)cc4F)ncnc3cc2OC)CC1 [Example 50, 1-(4-((4-((2-fluoro-4-((1-(6-methoxypyridazin-3-yl)-1H-pyrazol-3-yl)oxy)phenyl)amino)-7-methoxyquinazolin-6-yl)amino)piperidin-1-yl)prop-2-en-1-one]
< 30 nM	30 to 60 nM	< 30 nM	< 30 nM	100 to 300 nM	C=CC(=O)N1CCC(Nc2cc3c(Nc4ccc(Oc5nc(-c6cnc(OC)nc6)cs5)cc4F)ncnc3cc2OC)CC1 [Example 53, 1-(4-((4-((2-fluoro-4-((4-(2-methoxypyrimidin-5-yl)thiazol-2-yl)oxy)phenyl)amino)-7-methoxyquinazolin-6-yl)amino)piperidin-1-yl)prop-2-en-1-one]
< 30 nM	< 30 nM	< 30 nM	< 30 nM	100 to 300 nM	C=CC(=O)N1CCC(Nc2cc3c(Nc4ccc(Oc5ccn(-c6cnc(OC)nc6)n5)c(F)c4)ncnc3cc2OC)CC1 [Example 54, 1-(4-((4-((3-fluoro-4-((1-(2-methoxypyrimidin-5-yl)-1H-pyrazol-3-yl)oxy)phenyl)amino)-7-methoxyquinazolin-6-yl)amino)piperidin-1-yl)prop-2-en-1-one]
< 30 nM	< 30 nM	< 30 nM	< 30 nM	100 to 300 nM	C=CC(=O)N1CCC(Nc2cc3c(Nc4ccc(Oc5nc(-c6ccc(OC)nc6)cs5)cc4F)ncnc3cc2OC)CC1 [Example 55, 1-(4-((4-((2-fluoro-4-((4-(6-methoxypyridin-3-yl)thiazol-2-yl)oxy)phenyl)amino)-7-methoxyquinazolin-6-yl)amino)piperidin-1-yl)prop-2-en-1-one]
< 30 nM	30 to 60 nM	< 30 nM	< 30 nM	< 30 nM	C=CC(=O)N1CCC(Nc2cc3c(Nc4ccc(Oc5nc(-c6ccc(OC)nn6)cs5)cc4F)ncnc3cc2OC)CC1 [Example 56, 1-(4-((4-((2-fluoro-4-((4-(6-methoxypyridazin-3-yl)thiazol-2-yl)oxy)phenyl)amino)-7-methoxyquinazolin-6-yl)amino)piperidin-1-yl)prop-2-en-1-one]
60 to 100 nM	60 to 100 nM	60 to 100 nM	60 to 100 nM	300 to 600 nM	C=CC(=O)N1CCC(Nc2cc3c(Nc4ccc(Oc5ccn(-c6cccc(OC)n6)n5)cc4F)ncnc3cc2OC)CC1 [Example 58, 1-(4-((4-((2-fluoro-4-((1-(6-methoxypyridin-2-yl)-1H-pyrazol-3-yl)oxy)phenyl)amino)-7-methoxyquinazolin-6-yl)amino)piperidin-1-yl)prop-2-en-1-one]
30 to 60 nM	60 to 100 nM	60 to 100 nM	30 to 60 nM	100 to 300 nM	C=CC(=O)N1CCC(Nc2cc3c(Nc4ccc(Oc5ccn(-c6ccc(OC)cn6)n5)cc4F)ncnc3cc2OC)CC1 [Example 59, 1-(4-((4-((2-fluoro-4-((1-(5-methoxypyridin-2-yl)-1H-pyrazol-3-yl)oxy)phenyl)amino)-7-methoxyquinazolin-6-yl)amino)piperidin-1-yl)prop-2-en-1-one]
60 to 100 nM	30 to 60 nM	30 to 60 nM	30 to 60 nM	60 to 100 nM	C=CC(=O)N1CCC(Nc2cc3c(Nc4ccc(Oc5ccn(-c6cnc(C)c(F)c6)n5)c(F)c4)ncnc3cc2OC)CC1 [Example 86, 1-(4-((4-((3-fluoro-4-((1-(5-fluoro-6-methylpyridin-3-yl)-1H-pyrazol-3-yl)oxy)phenyl)amino)-7-methoxyquinazolin-6-yl)amino)piperidin-1-yl)prop-2-en-1-one]
60 to 100 nM	30 to 60 nM	100 to 300 nM	30 to 60 nM	≥ 1000 nM	C=CC(=O)N1CCC(Nc2cc3c(Nc4ccc(Oc5ncc(-c6cnc(C)c(F)c6)s5)cc4F)ncnc3cc2OC)CC1 [Example 88, 1-(4-((4-((2-fluoro-4-((5-(5-fluoro-6-methylpyridin-3-yl)thiazol-2-yl)oxy)phenyl)amino)-7-methoxyquinazolin-6-yl)amino)piperidin-1-yl)prop-2-en-1-one]
< 30 nM	30 to 60 nM	< 30 nM	< 30 nM	600 to 1000 nM	C=CC(=O)N1CCC(Nc2cc3c(Nc4ccc(Oc5ccn(-c6ccc(C)nc6F)n5)cc4F)ncnc3cc2OC)CC1 [Example 89, 1-(4-((4-((2-fluoro-4-((1-(2-fluoro-6-methylpyridin-3-yl)-1H-pyrazol-3-yl)oxy)phenyl)amino)-7-methoxyquinazolin-6-yl)amino)piperidin-1-yl)prop-2-en-1-one]
100 to 300 nM	60 to 100 nM	60 to 100 nM	60 to 100 nM	100 to 300 nM	C=CC(=O)N1CCC(Nc2cc3c(Nc4ccc(Oc5ccn(-c6cnc(OC)c(F)c6)n5)cc4F)ncnc3cc2OC)CC1 [Example 90, 1-(4-((4-((2-fluoro-4-((1-(5-fluoro-6-methoxypyridin-3-yl)-1H-pyrazol-3-yl)oxy)phenyl)amino)-7-methoxyquinazolin-6-yl)amino)piperidin-1-yl)prop-2-en-1-one]
